Consider seven compounds from patent publication US7662803B2, “Method for treating warm-blooded vertebrates with halide-free glucosamine-acidic drug complexes” (Gluconova, LLC, priority 2004, dated 2010).

What all share (assay type): in vivo
Assay [1] has as its system male Swiss Webster mice. In words: Elevated Plus Maze (test for antianxiety activity). The conditions noted are these: 0.50 mg/kg intraperitoneal, 30 min before test, 5 minute on maze, 6 mice.
Description: The apparatus employed in this example consisted of two darkened enclose arms and two open arms, with a light beam focused on the open arms. The maze is elevated to a height of 55 cm. Mice have a desire to explore the apparatus, but the open, bristly lit arms present an aversive environment so that their preference is to remain in the enclosed arms.
Thirty minutes later, each animal was individually placed on the elevated maze for 5 minute and the time spent on the open (aversive) arms was recorded.
Assay [2] relates to male Swiss Webster mice. In words: Metrazol-induced convulsions (test for antiepileptic activity). Conditions: 15 mg/kg subcutaneous, 15 min before metrazol 120 mg/kg s.c., 10 mice. How it is done: Three groups of 10 male Swiss Webster mice (25-30 g) received a subcutaneous injection of one of the following treatments: vehicle alone; phenytoin (15 mg/kg in 1% Tween® 80); halide-free glucosamine-phenytoin complex, ˜1:1 molar ratio, (15 mg/kg in water). Fifteen minutes later, each animal was injected subcutaneously with a convulsant dose of metrazol (120 mg/kg) and observed for 60 minutes for an entire-body convulsion.

The next assay has as its system male Swiss-Webster mice. In words: abdominal irritant test (test for analgesia), acetylcholine bromide i.p. Conditions: 30 min before acetylcholine bromide 5.5 mg/kg i.p., observed 10 min, 10 mice per group. How it is done: The test that was employed is an abdominal irritant test that was carried out in accordance with the procedure set forth by Collier et al., Brit. J. Pharmacol., 32:295-310 (1968).
Each group of 10 male Swiss-Webster mice weighing 25-30 g received an oral injection of (a) distilled water or 1% Tween® 80; or (b) a previously established analgesic dose of either ibuprofen (30 mg/kg), ketoprofen (200 mg/kg), naproxen (30 mg/kg), piroxicam (3 mg/kg) or aspirin (150 mg/kg) or ([…]).
Thirty minutes after each injection, each mouse was injected i.p. ([…]) with an aqueous solution of acetylcholine bromide (5.5 mg/kg). The animals were then observed for 10 minutes for the presence or absence of a characteristic wave of contraction and elongation passing caudally along the abdominal wall, accompanied by a twisting of the trunk and followed by extension of the hind limbs. The percentage of analgesia was then calculated for each group based on the percentage of mice displaying no behavioral response.

[3] abbreviates: 30 mg/kg oral (complex: mg/kg of the complex).

With `CN1C(=O)CN=C(c2ccccc2)c2cc(Cl)ccc21` [Diazepam, diazepam], the “Mean time (sec) ± s.e.m. in open arms” value in the assay with male Swiss Webster mice [1] amounted to 30.3 ± 12.7 s.

On to `O=C1NC(=O)C(c2ccccc2)(c2ccccc2)N1` [Phenytoin, phenytoin], for which, in the assay on male Swiss Webster mice [2], the “No. of mice protected (no body seizures in 60 min.)” value was 1/10.

For `CC(=O)Oc1ccccc1C(=O)O` [aspirin], the “analgesia (percentage of mice displaying no behavioral response)” value in the assay with male Swiss-Webster mice (0.50 mg/kg oral as printed (complex: mg/kg of the complex)) was found to be 70%.

`CC(C)Cc1ccc(C(C)C(=O)O)cc1` (stereo not shown) [ibuprofen]: the “analgesia (percentage of mice displaying no behavioral response)” value with male Swiss-Webster mice (setting [3]) amounted to 80%.

For `CC(C(=O)O)c1cccc(C(=O)c2ccccc2)c1` (stereo not shown) [ketoprofen], the “analgesia (percentage of mice displaying no behavioral response)” value with male Swiss-Webster mice (200 mg/kg oral (complex: mg/kg of the complex)) worked out at 56%.

Take `COc1ccc2cc([C@H](C)C(=O)O)ccc2c1` [naproxen]: the “analgesia (percentage of mice displaying no behavioral response)” value in the assay on male Swiss-Webster mice (setting [3]) was determined as 70%.

On to `CN1C(C(=O)Nc2ccccn2)=C(O)c2ccccc2S1(=O)=O` [piroxicam], for which the “analgesia (percentage of mice displaying no behavioral response)” value with male Swiss-Webster mice (3 mg/kg oral (complex: mg/kg of the complex)) turned out to be 70%.
